The NIST ThermoML archive (doi:10.1021/acs.jced.6b00181)

Assay: xn = mol fraction of the nth substance listed
Conditions: Liquid, Other PVT measurement

C=CC [propene] + CCCCCC
Conditions	mass density [kg/m3]
325.5 K, 6800 kPa, x1 = 0.8985	488.5
325.5 K, 10700 kPa, x1 = 0.8985	500.7
325.5 K, 13800 kPa, x1 = 0.8985	508.3
325.5 K, 16100 kPa, x1 = 0.8985	513.5
325.5 K, 20900 kPa, x1 = 0.8985	523.6
325.5 K, 27600 kPa, x1 = 0.8985	535.1
325.5 K, 34300 kPa, x1 = 0.8985	544.8
325.5 K, 41300 kPa, x1 = 0.8985	554.1
325.5 K, 48200 kPa, x1 = 0.8985	561.7
325.5 K, 51600 kPa, x1 = 0.8985	566.7
325.5 K, 55000 kPa, x1 = 0.8985	569.5
325.5 K, 58400 kPa, x1 = 0.8985	574.2
325.5 K, 61800 kPa, x1 = 0.8985	576.8
325.5 K, 64200 kPa, x1 = 0.8985	580.1
325.5 K, 67100 kPa, x1 = 0.8985	582.4
370.2 K, 5200 kPa, x1 = 0.9003	385.2
370.2 K, 5900 kPa, x1 = 0.9003	392.1
370.2 K, 7300 kPa, x1 = 0.9003	406
370.2 K, 10700 kPa, x1 = 0.9003	429.7
370.2 K, 14200 kPa, x1 = 0.9003	447.3
370.2 K, 17300 kPa, x1 = 0.9003	459.2
370.2 K, 20800 kPa, x1 = 0.9003	469.1
370.2 K, 24100 kPa, x1 = 0.9003	478.3
370.2 K, 31300 kPa, x1 = 0.9003	495.2
370.2 K, 38000 kPa, x1 = 0.9003	508.5
370.2 K, 44600 kPa, x1 = 0.9003	519.7
370.2 K, 46900 kPa, x1 = 0.9003	523.6
370.2 K, 48000 kPa, x1 = 0.9003	523.6
370.2 K, 50600 kPa, x1 = 0.9003	529.1
370.2 K, 51400 kPa, x1 = 0.9003	529.1
370.2 K, 57800 kPa, x1 = 0.9003	538.5
370.2 K, 61800 kPa, x1 = 0.9003	544.3
370.2 K, 67100 kPa, x1 = 0.9003	550.3
374.1 K, 2800 kPa, x1 = 0.606	465.7
374.1 K, 2900 kPa, x1 = 0.606	467
374.1 K, 3800 kPa, x1 = 0.606	471.2
374.1 K, 5500 kPa, x1 = 0.606	479
374.1 K, 7300 kPa, x1 = 0.606	486.2
374.1 K, 10600 kPa, x1 = 0.606	497.9
374.1 K, 17400 kPa, x1 = 0.606	515.3
374.1 K, 24000 kPa, x1 = 0.606	528.5
374.1 K, 31000 kPa, x1 = 0.606	540.7
374.1 K, 37900 kPa, x1 = 0.606	551.3
374.1 K, 38000 kPa, x1 = 0.606	551.7
374.1 K, 44700 kPa, x1 = 0.606	560.9
374.1 K, 51300 kPa, x1 = 0.606	569.2
374.1 K, 58100 kPa, x1 = 0.606	577.4
374.1 K, 63300 kPa, x1 = 0.606	583.4
374.1 K, 66900 kPa, x1 = 0.606	587.4
423.6 K, 16600 kPa, x1 = 0.9003	385.2
423.6 K, 17400 kPa, x1 = 0.9003	389.1
423.6 K, 20800 kPa, x1 = 0.9003	408.2
423.6 K, 24300 kPa, x1 = 0.9003	424
423.6 K, 31200 kPa, x1 = 0.9003	449.1
423.6 K, 37900 kPa, x1 = 0.9003	462.3
423.6 K, 44800 kPa, x1 = 0.9003	479.8
423.6 K, 51600 kPa, x1 = 0.9003	493
423.6 K, 58300 kPa, x1 = 0.9003	504.1
423.6 K, 59400 kPa, x1 = 0.9003	504.8
423.6 K, 63700 kPa, x1 = 0.9003	512.3
423.6 K, 67100 kPa, x1 = 0.9003	516.8
424 K, 10100 kPa, x1 = 0.606	427.5
424 K, 17500 kPa, x1 = 0.606	462.7
424 K, 24300 kPa, x1 = 0.606	484.2
424 K, 30800 kPa, x1 = 0.606	500.6
424 K, 37900 kPa, x1 = 0.606	514.3
424 K, 44700 kPa, x1 = 0.606	523.9
424 K, 51400 kPa, x1 = 0.606	534.9
424 K, 58300 kPa, x1 = 0.606	546
424 K, 63000 kPa, x1 = 0.606	551
424 K, 66900 kPa, x1 = 0.606	556
424.7 K, 4800 kPa, x1 = 0.4466	433.6
424.7 K, 7200 kPa, x1 = 0.4466	448.4
424.7 K, 10700 kPa, x1 = 0.4466	467.6
424.7 K, 17400 kPa, x1 = 0.4466	492.5
424.7 K, 21000 kPa, x1 = 0.4466	502.4
424.7 K, 24300 kPa, x1 = 0.4466	511.5
424.7 K, 31000 kPa, x1 = 0.4466	525
424.7 K, 37800 kPa, x1 = 0.4466	537.6
424.7 K, 44700 kPa, x1 = 0.4466	548.4
424.7 K, 51500 kPa, x1 = 0.4466	558.4
424.7 K, 58300 kPa, x1 = 0.4466	567.4
424.7 K, 63900 kPa, x1 = 0.4466	573.9
424.7 K, 67500 kPa, x1 = 0.4466	578.1
425 K, 1800 kPa, x1 = 0.1414	494.2
425 K, 3700 kPa, x1 = 0.1414	504.2
425 K, 5100 kPa, x1 = 0.1414	510.4
425 K, 7000 kPa, x1 = 0.1414	517.7
425 K, 10400 kPa, x1 = 0.1414	528.7
425 K, 17300 kPa, x1 = 0.1414	546.6
425 K, 17500 kPa, x1 = 0.1414	547.3
425 K, 20600 kPa, x1 = 0.1414	553.9
425 K, 24100 kPa, x1 = 0.1414	561.4
425 K, 27600 kPa, x1 = 0.1414	567.6
425 K, 30900 kPa, x1 = 0.1414	573.2
425 K, 34300 kPa, x1 = 0.1414	578.9
425 K, 37800 kPa, x1 = 0.1414	584.7
425 K, 41100 kPa, x1 = 0.1414	589.1
425 K, 44600 kPa, x1 = 0.1414	594.3
425 K, 51900 kPa, x1 = 0.1414	603.8
425 K, 54400 kPa, x1 = 0.1414	607.1
425 K, 58600 kPa, x1 = 0.1414	612.3
425 K, 61800 kPa, x1 = 0.1414	615.7
425 K, 63600 kPa, x1 = 0.1414	617.9
425 K, 66700 kPa, x1 = 0.1414	621
500.9 K, 12400 kPa, x1 = 0.1414	449.6
500.9 K, 13900 kPa, x1 = 0.1414	457.6
500.9 K, 20800 kPa, x1 = 0.1414	486.8
500.9 K, 24600 kPa, x1 = 0.1414	500.5
500.9 K, 27500 kPa, x1 = 0.1414	508.9
500.9 K, 31000 kPa, x1 = 0.1414	517.7
500.9 K, 37300 kPa, x1 = 0.1414	531.3
500.9 K, 37900 kPa, x1 = 0.1414	531.3
500.9 K, 41400 kPa, x1 = 0.1414	537.5
500.9 K, 44700 kPa, x1 = 0.1414	543.2
500.9 K, 44800 kPa, x1 = 0.1414	543.5
500.9 K, 47100 kPa, x1 = 0.1414	549
500.9 K, 48100 kPa, x1 = 0.1414	549
500.9 K, 51500 kPa, x1 = 0.1414	554.6
500.9 K, 54900 kPa, x1 = 0.1414	559.9
500.9 K, 58400 kPa, x1 = 0.1414	565.4
500.9 K, 61800 kPa, x1 = 0.1414	569.8
500.9 K, 64600 kPa, x1 = 0.1414	574
500.9 K, 67400 kPa, x1 = 0.1414	577.4
501 K, 7900 kPa, x1 = 0.4466	293.3
501 K, 9200 kPa, x1 = 0.606	230.6
501 K, 9700 kPa, x1 = 0.4466	331
501 K, 10100 kPa, x1 = 0.4466	330.6
501 K, 10700 kPa, x1 = 0.606	272.7
501 K, 12400 kPa, x1 = 0.606	306.1
501 K, 12600 kPa, x1 = 0.4466	363.8
501 K, 17200 kPa, x1 = 0.4466	401.7
501 K, 17300 kPa, x1 = 0.606	362
501 K, 20700 kPa, x1 = 0.606	386.4
501 K, 21900 kPa, x1 = 0.4466	428.7
501 K, 22000 kPa, x1 = 0.4466	433.3
501 K, 24000 kPa, x1 = 0.4466	436.5
501 K, 24400 kPa, x1 = 0.4466	440.8
501 K, 25200 kPa, x1 = 0.606	411.3
501 K, 29000 kPa, x1 = 0.606	429
501 K, 31000 kPa, x1 = 0.606	435.7
501 K, 31200 kPa, x1 = 0.4466	463.6
501 K, 34600 kPa, x1 = 0.4466	473.3
501 K, 37900 kPa, x1 = 0.4466	482.2
501 K, 37900 kPa, x1 = 0.606	455.7
501 K, 44800 kPa, x1 = 0.606	473.6
501 K, 45000 kPa, x1 = 0.4466	497.7
501 K, 51400 kPa, x1 = 0.606	485.9
501 K, 51600 kPa, x1 = 0.4466	509.9
501 K, 57900 kPa, x1 = 0.4466	519.9
501 K, 58400 kPa, x1 = 0.606	500
501 K, 63000 kPa, x1 = 0.606	506.6
501 K, 63200 kPa, x1 = 0.4466	527.6
501 K, 67000 kPa, x1 = 0.606	512.8
501 K, 67200 kPa, x1 = 0.4466	533.2
584.6 K, 29000 kPa, x1 = 0.1414	449.8
584.6 K, 31100 kPa, x1 = 0.1414	456.9
584.6 K, 34700 kPa, x1 = 0.1414	468.2
584.6 K, 37900 kPa, x1 = 0.1414	478
584.6 K, 41400 kPa, x1 = 0.1414	487.3
584.6 K, 44800 kPa, x1 = 0.1414	495.6
584.6 K, 45100 kPa, x1 = 0.1414	496.5
584.6 K, 48100 kPa, x1 = 0.1414	503.4
584.6 K, 51700 kPa, x1 = 0.1414	510.7
584.6 K, 55100 kPa, x1 = 0.1414	517.4
584.6 K, 58400 kPa, x1 = 0.1414	523.9
584.6 K, 61800 kPa, x1 = 0.1414	529
584.6 K, 64200 kPa, x1 = 0.1414	532.9
584.6 K, 67400 kPa, x1 = 0.1414	537.5
